biological target: SMYD3 (Homo sapiens (Human), UniProt Q9H7B4); assay: SMYD3 biochemical assay (SMYD3 enzyme assay on MEKK2 protein substrate, 3H-SAM scintillation proximity assay); conditions: read-out: SMYD3 Biochem IC50
Procedure, shortened: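 Native full-length human SMYD3, expressed in E. coli, was preincubated with compound for 30 min at room temperature in 25 mM Tris-Cl pH 8.0, 1 mM TCEP, 0.005% BSG and 0.005% Tween 20. ³H-SAM plus GST-MEKK2 then started the reaction. It was stopped with unlabeled SAM (100 uM final), and methylated MEKK2 was read by SPA.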

Sequence of SMYD3 (Q9H7B4 whole entry): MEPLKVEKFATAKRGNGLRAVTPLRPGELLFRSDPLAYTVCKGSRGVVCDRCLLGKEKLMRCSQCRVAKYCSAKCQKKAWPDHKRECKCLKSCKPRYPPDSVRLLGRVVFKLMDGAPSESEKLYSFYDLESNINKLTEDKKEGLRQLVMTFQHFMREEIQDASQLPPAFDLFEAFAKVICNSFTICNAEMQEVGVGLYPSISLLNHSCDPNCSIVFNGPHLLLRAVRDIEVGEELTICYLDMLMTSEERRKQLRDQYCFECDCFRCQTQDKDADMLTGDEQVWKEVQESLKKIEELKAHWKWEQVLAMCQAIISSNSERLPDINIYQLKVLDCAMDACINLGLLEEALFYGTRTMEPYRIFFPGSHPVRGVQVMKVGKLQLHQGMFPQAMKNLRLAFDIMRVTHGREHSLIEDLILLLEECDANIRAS

IC50, 50.7 µM:
Cc1cncc(C(=O)N[C@H]2CC[C@H](N)CC2)c1 [compound 345, N-((1r,4r)-4-aminocyclohexyl)-5-methylnicotinamide]

IC50, 16.6 µM:
NCCC(=O)N[C@H]1CC[C@H](NC(=O)c2ccnc(N)c2)CC1 [compound 321, 2-amino-N-((1r,4r)-4-(3-aminopropanamido)cyclohexyl)isonicotinamide]

IC50, 85.1 µM:
NCCC(=O)N[C@H]1CC[C@H](NC(=O)c2ccc3c(c2)no[n+]3[O-])CC1 [compound 331, 5-(((1r,4r)-4-(3-aminopropanamido)cyclohexyl)carbamoyl)benzo[c][1,2,5]oxadiazole 1-oxide]

IC50, > 100 µM:
CC(NC(=O)c1ccc(O)cn1)C1CCN(C(=O)[C@H](C)N)CC1 (stereo partly drawn) [compound 310, N-(1-(1-(L-alanyl)piperidin-4-yl)ethyl)-5-hydroxypicolinamide]
CC(NC(=O)C1=NNC(=O)CC1)C1CCN(C(=O)[C@H](C)N)CC1 (stereo partly drawn) [compound 311, N-(1-(1-(L-alanyl)piperidin-4-yl)ethyl)-6-oxo-1,4,5,6-tetrahydropyridazine-3-carboxamide]
CC(NC(=O)c1n[nH]c2ccccc12)C1CCN(C(=O)[C@H](C)N)CC1 (stereo partly drawn) [compound 312, N-(1-(1-(L-alanyl)piperidin-4-yl)ethyl)-1H-indazole-3-carboxamide]
CC(NC(=O)Cc1cccnc1)C1CCN(C(=O)[C@H](C)N)CC1 (stereo partly drawn) [compound 314, N-(1-(1-(L-alanyl)piperidin-4-yl)ethyl)-2-(pyridin-3-yl)acetamide]
CC(NC(=O)Cc1cncnc1)C1CCN(C(=O)[C@H](C)N)CC1 (stereo partly drawn) [compound 315, N-(1-(1-(L-alanyl)piperidin-4-yl)ethyl)-2-(pyrimidin-5-yl)acetamide]
CC(NC(=O)Cn1ccnc1)C1CCN(C(=O)[C@H](C)N)CC1 (stereo partly drawn) [compound 316, N-(1-(1-(L-alanyl)piperidin-4-yl)ethyl)-2-(1H-imidazol-1-yl)acetamide]
NCCC(=O)N[C@H]1CC[C@H](NC(=O)c2cn3ccsc3n2)CC1 [compound 317, N-((1r,4r)-4-(3-aminopropanamido)cyclohexyl)imidazo[2,1-b]thiazole-6-carboxamide]
N[C@H]1CC[C@H](NC(=O)c2cn3ccsc3n2)CC1 [compound 318, N-((1r,4r)-4-aminocyclohexyl)imidazo[2,1-b]thiazole-6-carboxamide]
Cc1ncc(C(=O)N[C@H]2CC[C@H](N)CC2)cn1 [compound 320, N-((1r,4r)-4-aminocyclohexyl)-2-methylpyrimidine-5-carboxamide]
Nc1cc(C(=O)N[C@H]2CC[C@H](N)CC2)ccn1 [compound 322, 2-amino-N-((1r,4r)-4-aminocyclohexyl)isonicotinamide]
CC(NC(=O)c1ccc(S(N)(=O)=O)cc1)C1CCN(C(=O)[C@H](C)N)CC1 (stereo partly drawn) [compound 323, N-(1-(1-(L-alanyl)piperidin-4-yl)ethyl)-4-sulfamoylbenzamide]
Cc1cc(C)c(C(=O)N[C@H]2CC[C@H](N)CC2)c(=O)[nH]1 [compound 324, N-((1r,4r)-4-aminocyclohexyl)-4,6-dimethyl-2-oxo-1,2-dihydropyridine-3-carboxamide]
Cn1ncc2ccc(C(=O)N[C@H]3CC[C@H](NC(=O)CCN)CC3)cc21 [compound 325, N-((1r,4r)-4-(3-aminopropanamido)cyclohexyl)-1-methyl-1H-indazole-6-carboxamide]
NCCC(=O)N[C@H]1CC[C@H](NC(=O)c2cc(=O)c3ccccc3o2)CC1 [compound 327, N-((1r,4r)-4-(3-aminopropanamido)cyclohexyl)-4-oxo-4H-chromene-2-carboxamide]
N[C@H]1CC[C@H](NC(=O)c2cc(O)c3ccccc3n2)CC1 [compound 328, N-((1r,4r)-4-aminocyclohexyl)-4-hydroxyquinoline-2-carboxamide]
NCCC(=O)N[C@H]1CC[C@H](NC(=O)c2ccc(-n3cnnc3)cc2)CC1 [compound 329, N-((1r,4r)-4-(3-aminopropanamido)cyclohexyl)-4-(4H-1,2,4-triazol-4-yl)benzamide]
NCCC(=O)N[C@H]1CC[C@H](NC(=O)c2ccc3nonc3c2)CC1 [compound 332, N-((1r,4r)-4-(3-aminopropanamido)cyclohexyl)benzo[c][1,2,5]oxadiazole-5-carboxamide]
N[C@H]1CC[C@H](NC(=O)CCCn2ccnc2)CC1 [compound 333, N-((1r,4r)-4-aminocyclohexyl)-4-(1H-imidazol-1-yl)butanamide]
NCCC(=O)N[C@H]1CC[C@H](NC(=O)c2cc3cc(F)ccc3[nH]2)CC1 [compound 335, N-((1r,4r)-4-(3-aminopropanamido)cyclohexyl)-5-fluoro-1H-indole-2-carboxamide]
N[C@H]1CC[C@H](NC(=O)c2nc3ccccc3[nH]2)CC1 [compound 336, N-((1r,4r)-4-aminocyclohexyl)-1H-benzo[d]imidazole-2-carboxamide]
Cn1ccnc1C(=O)N[C@H]1CC[C@H](N)CC1 [compound 337, N-((1r,4r)-4-aminocyclohexyl)-1-methyl-1H-imidazole-2-carboxamide]
CC(NC(=O)C1C[C@@H]2C=C[C@H]1C2)C1CCN(C(=O)[C@H](C)N)CC1 (stereo partly drawn) [compound 338, (1r,4r)-N-(1-(1-(L-alanyl)piperidin-4-yl)ethyl)bicyclo[2.2.1]hept-5-ene-2-carboxamide]
Cc1ccncc1C(=O)N[C@H]1CC[C@H](N)CC1 [compound 339, N-((1r,4r)-4-aminocyclohexyl)-4-methylnicotinamide]
Cc1cccc(Cn2nc(C(C)(C)C)cc2C(=O)N[C@H]2CC[C@H](NC(=O)CCN)CC2)c1 [compound 340, N-((1r,4r)-4-(3-aminopropanamido)cyclohexyl)-3-(tert-butyl)-1-(3-methylbenzyl)-1H-pyrazole-5-carboxamide]
Cc1cccc(Cn2nc(C(C)(C)C)cc2C(=O)N[C@H]2CC[C@H](N)CC2)c1 [compound 341, N-((1r,4r)-4-aminocyclohexyl)-3-(tert-butyl)-1-(3-methylbenzyl)-1H-pyrazole-5-carboxamide]
Cc1ccc(C(=O)N[C@H]2CC[C@H](N)CC2)cn1 [compound 346, N-((1r,4r)-4-aminocyclohexyl)-6-methylnicotinamide]
Cc1nscc1C(=O)N[C@H]1CC[C@H](NC(=O)CCN)CC1 [compound 347, N-((1r,4r)-4-(3-aminopropanamido)cyclohexyl)-3-methylisothiazole-4-carboxamide]
Cc1nscc1C(=O)N[C@H]1CC[C@H](N)CC1 [compound 348, N-((1r,4r)-4-aminocyclohexyl)-3-methylisothiazole-4-carboxamide]
Cn1ccc(C(=O)N[C@H]2CC[C@H](NC(=O)CCN)CC2)n1 [compound 349, N-((1r,4r)-4-(3-aminopropanamido)cyclohexyl)-1-methyl-1H-pyrazole-3-carboxamide]
Cn1ccc(C(=O)N[C@H]2CC[C@H](N)CC2)n1 [compound 350, N-((1r,4r)-4-aminocyclohexyl)-1-methyl-1H-pyrazole-3-carboxamide]
Cn1nc(C(C)(C)C)cc1C(=O)N[C@H]1CC[C@H](NC(=O)CCN)CC1 [compound 351, N-((1r,4r)-4-(3-aminopropanamido)cyclohexyl)-3-(tert-butyl)-1-methyl-1H-pyrazole-5-carboxamide]
Cn1nc(C(C)(C)C)cc1C(=O)N[C@H]1CC[C@H](N)CC1 [compound 352, N-((1r,4r)-4-aminocyclohexyl)-3-(tert-butyl)-1-methyl-1H-pyrazole-5-carboxamide]
COc1cccc(C(=O)N[C@H]2CC[C@H](NC(=O)CCN)CC2)n1 [compound 353, N-((1r,4r)-4-(3-aminopropanamido)cyclohexyl)-6-methoxypicolinamide]
COc1cccc(C(=O)N[C@H]2CC[C@H](N)CC2)n1 [compound 354, N-((1r,4r)-4-aminocyclohexyl)-6-methoxypicolinamide]

IC50, 28 µM:
COc1ccc2cc(C(=O)N[C@H]3CC[C@H](NC(=O)CCN)CC3)ccc2c1 [compound 326, N-((1r,4r)-4-(3-aminopropanamido)cyclohexyl)-6-methoxy-2-naphthamide]

IC50, 68.5 µM:
Cc1cccc2cc(C(=O)N[C@H]3CC[C@H](N)CC3)[nH]c12 [compound 343, N-((1r,4r)-4-aminocyclohexyl)-7-methyl-1H-indole-2-carboxamide]

IC50, 34.9 µM:
COc1ccc2cc(C(C)C(=O)NC(C)C3CCN(C(=O)[C@H](C)N)CC3)ccc2c1 (stereo partly drawn) [compound 334, N-(1-(1-(L-alanyl)piperidin-4-yl)ethyl)-2-(6-methoxynaphthalen-2-yl)propanamide]

IC50, 37.7 µM:
Cc1cccc2cc(C(=O)N[C@H]3CC[C@H](NC(=O)CCN)CC3)[nH]c12 [compound 342, N-((1r,4r)-4-(3-aminopropanamido)cyclohexyl)-7-methyl-1H-indole-2-carboxamide]

IC50, 36.4 µM:
Cc1cncc(C(=O)N[C@H]2CC[C@H](NC(=O)CCN)CC2)c1 [compound 344, N-((1r,4r)-4-(3-aminopropanamido)cyclohexyl)-5-methylnicotinamide]

IC50, 7.49 µM:
NCCC(=O)N[C@H]1CC[C@H](NC(=O)c2ccc3c(c2)OC(F)(F)O3)CC1 [compound 330, N-((1r,4r)-4-(3-aminopropanamido)cyclohexyl)-2,2-difluorobenzo[d][1,3]dioxole-5-carboxamide]

IC50, 70.7 µM:
CC(NC(=O)Cc1cc(F)cc(F)c1)C1CCN(C(=O)[C@H](C)N)CC1 (stereo partly drawn) [compound 313, N-(1-(1-(L-alanyl)piperidin-4-yl)ethyl)-2-(3,5-difluorophenyl)acetamide]

Source: US10266526B2, “Substituted 1,2,3-triazoles as SMYD inhibitors for treating cancer” (EPIZYME, INC., priority 2014, dated 2019)
